Source: patent US11066399B2, “Ferroportin inhibitors” (Vifor (International) AG, priority 2015, dated 2021)
Marks after values point to notes of the source that are not given here.

Legend:
ferroportin (Fpn) [1] = molecular target: T1, ferroportin (Fpn) (Mus musculus, UniProt Q9JHI9); test: Ferroportin Ubiquitination and Degradation (immunoprecipitation, Western blot, J774 cells); format: cell-based; design: key: +: comparable to hepcidin; −: no effect; +/−: intermediate effect; settings: ca. 10-fold IC50 concentration, visual inspection of Western blots
T1 construct: host or cells: J774 mouse macrophage cell line, Fe(III)-NTA induced
T1 sequence (Q9JHI9 1-570): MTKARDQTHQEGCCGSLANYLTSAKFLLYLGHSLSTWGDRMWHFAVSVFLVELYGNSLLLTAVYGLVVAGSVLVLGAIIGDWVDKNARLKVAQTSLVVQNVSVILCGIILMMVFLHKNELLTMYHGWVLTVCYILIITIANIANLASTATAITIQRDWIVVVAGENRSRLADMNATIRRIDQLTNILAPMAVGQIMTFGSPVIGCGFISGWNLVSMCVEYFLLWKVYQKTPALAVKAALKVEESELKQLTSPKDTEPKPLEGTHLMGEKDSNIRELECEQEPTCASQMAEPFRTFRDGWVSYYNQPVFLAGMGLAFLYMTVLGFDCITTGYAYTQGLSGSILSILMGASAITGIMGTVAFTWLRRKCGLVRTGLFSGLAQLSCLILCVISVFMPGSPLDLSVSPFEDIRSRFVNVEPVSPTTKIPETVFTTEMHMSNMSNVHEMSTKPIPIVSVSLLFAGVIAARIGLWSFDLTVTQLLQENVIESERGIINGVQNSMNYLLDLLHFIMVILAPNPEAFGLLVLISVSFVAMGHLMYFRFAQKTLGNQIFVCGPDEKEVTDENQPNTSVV
Procedure: Exposure of cells expressing ferroportin (Fpn) to hepcidin is known to trigger ubiquitination and subsequent internalization and degradation of Fpn (Qiao, 2012). The potential of Fpn inhibitors to induce Fpn ubiquitination and degradation was investigated with an immunoprecipitation assay using the J774 mouse macrophage cell line which expresses Fpn upon treatment with iron.
Cells were incubated with synthetic human hepcidin (Bachem, Cat. H-5926) or Fpn inhibitor compounds for 10 min or 120 min. Cells were washed and lysed with ice-cold lysis buffer (Pierce, Life Technologies, Cat. 87787) including 1×HALT protease inhibitor cocktail (Life technologies, Cat. 78429) and 10 mM iodoacetamide (Sigma, Cat. 16125) to stabilize ubiquitinated proteins. Immunoprecipitation was done using the Pierce Classic IP Kit (Life Technologies, Cat. 26146) following the manufacturer's protocol. Briefly, 2 mg protein in 1.25 ml IP lysis buffer was incubated by mixing for 1 h at 4° C. with control agarose beads to pre-clear the lysate and reduce nonspecific signal. Unbound lysate was then incubated overnight with 12 μg per reaction of the affinity purified anti-Fpn antibody F308 that was raised against a GST fusion protein of mouse Fpn amino acids 224-308. Immune complexes were captured by pipetting 14 μl settled Pierce Protein A/G Plus Agarose beads (Life Technologies, Cat. 20423) per reaction and the slurry was incubated for 1.5 h at 4° C. with gentle end-over-end mixing. The beads were washed and immune complexes were eluted directly with 75 μl SDS NuPAGE LDS sample buffer (Life Technologies, Cat. NP0007) containing DTT (Life Technologies, Cat. NP0009). After immunoprecipitation samples were analyzed by Western blotting using a rabbit anti-mouse MTP1 antiserum (Alpha Diagnostic International, Cat. MTP11-A) and a mouse anti-mono- and polyubiquitinylated conjugates monoclonal antibody (Enzo Lifesciences, Cat. BML-PW8810) for detection of ferroportin and ubiquitin, respectively. Mouse monoclonal anti-rabbit IgG light chain (Abcam, Cat. ab99697) and anti-mouse IgG H&L (Abcam, Cat. ab6789) HRP conjugates were used as secondary antibodies.
A selection of eleven Fpn inhibitors were tested in this assay and compared to hepcidin.
Table 5 Summary of Fpn inhibitors tested in the Fpn ubiquitination and degradation assay.

ferroportin (Fpn) [2] = molecular target: T1, ferroportin (Fpn); test: Hepcidin Internalization Assay (J774); format: cell-based; settings: average (AVE) of multiple measurements; TMR-hepcidin 25 nM, J774 cells
Excerpt: This cellular assay allows quantification of the binding of hepcidin to ferroportin (Fpn) through microscopic detection of internalization of a fluorescently labeled hepcidin into J774 cells. […] Binding of hepcidin to Fpn triggers internalization and degradation of both hepcidin and Fpn. However, the TMR (6-carboxytetramethylrhodamine) fluorophore attached to hepcidin remains associated with the cell after degradation of the hepcidin peptide backbone. Therefore, microscopic detection of cell-associated TMR fluorescence is a measure of hepcidin binding to Fpn and internalization of hepcidin and Fpn. If TMR-hepcidin is prevented from binding to Fpn, cellular TMR fluorescence remains low (Dürrenberger et al, 2013). The effect of small molecular weight Fpn inhibitor compounds in this assay was evaluated in vitro as described below.
After overnight incubation, cells were washed 3 times with pre-warmed DMEM w/o phenol red, 30 μl/well of DMEM w/o phenol red was added after the final wash and 10 μl/well of dilution series of test compounds were added in triplicates. […] Cells were incubated in a total volume of 50 μl at 37° C. with 5% CO2 for 2 hours, then Hoechst 33342 dye was added to a final concentration of 0.5 μg/ml to stain nuclei and further incubated for 10 min. at 37° C. with 5% CO2. Cells were washed 3 times with PBS and fixed in 100 μl of 4% paraformaldehyde in PBS for 15 min. at room temperature. After removal of the paraformaldehyde solution, cells were washed 3 times with PBS leaving 100 μl per well and the plates were sealed with foil plate seal. TMR (530-550 nm excitation/575-625 nm emission/400 ms exposure time) and Hoechst 33342 (360-370 nm excitation/420-460 nm emission/10 ms exposure time) fluorescence images were acquired using a ScanR plate imager (Olympus) with a 20× high NA objective. Four pictures were acquired per well and fluorescence channel covering ca. 1500 cells per well. The acquired image data was analysed with the ScanR image analysis software. Image analysis included detection of nuclei (Hoechst 33342 fluorescence), identification of cell-associated regions, application of a virtual channel and thresholding for rolling-ball-type background reduction, followed by application of the Sum(Mean) algorithm to measure the TMR fluorescence associated with cells as a quantitative measure for internalized TMR-hepcidin. IC50 values were calculated with the Sum(Mean) raw data using “log(inhibitor) vs. response” curve fitting of Prism 5 software (GraphPad Software Inc., version 5.02).

human Fpn = molecular target: T2, human Fpn (Homo sapiens, UniProt Q9NP59); test: Biophysical Ferroportin-Hepcidin Binding Assay (fluorescence polarization); settings: average (AVE) of multiple measurements; TMR-hepcidin binding to purified human Fpn; read-out: FP IC50
T2 construct: FLAG (C); made in house; host or cells: Pichia pastoris
T2 sequence (Q9NP59 1-571): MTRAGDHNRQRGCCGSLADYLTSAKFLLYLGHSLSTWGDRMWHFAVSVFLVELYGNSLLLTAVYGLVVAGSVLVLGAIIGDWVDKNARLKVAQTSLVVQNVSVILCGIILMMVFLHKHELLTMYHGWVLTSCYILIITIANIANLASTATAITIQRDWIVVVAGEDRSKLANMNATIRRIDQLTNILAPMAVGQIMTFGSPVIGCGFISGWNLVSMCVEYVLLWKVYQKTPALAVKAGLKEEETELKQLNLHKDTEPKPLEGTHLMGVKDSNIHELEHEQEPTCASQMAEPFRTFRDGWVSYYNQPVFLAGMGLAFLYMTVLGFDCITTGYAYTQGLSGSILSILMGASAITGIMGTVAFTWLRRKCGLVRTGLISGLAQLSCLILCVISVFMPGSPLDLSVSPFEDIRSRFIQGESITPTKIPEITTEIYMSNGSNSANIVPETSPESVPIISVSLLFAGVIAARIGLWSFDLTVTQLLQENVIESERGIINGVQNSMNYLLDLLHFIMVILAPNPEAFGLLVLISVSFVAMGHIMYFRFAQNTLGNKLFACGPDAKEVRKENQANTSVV
Procedure: This biophysical assay was developed to confirm inhibition of hepcidin binding to ferroportin (Fpn) more directly. Incubation of TMR-hepcidin with purified human Fpn isolated from Pichia pastoris yeast cells expressing human Fpn with a C-terminal FLAG affinity tag (Bonaccorsi di Patti, 2014) leads to increased fluorescence polarization (FP) of the TMR-hepcidin ligand. Small molecular weight Fpn inhibitors were tested for inhibition of binding of TMR-hepcidin to Fpn, as detected by dose-dependent decrease of the TMR FP signal, as described in detail below.
A mixture of […] human Fpn and 30 nM TMR-hepcidin in FP assay buffer containing 50 mM Tris-HCl pH 7.3, 200 mM NaCl, 0.02% DDM, 0.1% BSA was plated into a 384 well black low volume round bottom plate (Corning, Cat. 3677) at 16 μl per well. 8 μl of serial dilutions of test compounds were added in duplicates to reach final Fpn and TMR-hepcidin concentrations of […] and 20 nM, respectively. Plates were incubated for 90 minutes at room temperature and parallel (S) and perpendicular (P) fluorescence was measured in a Synergy H1 fluorescence reader (BioTek). FP values were calculated in mP according to the following formula.

naïve WT C57BL/6 mice = test: Hypoferremia in naïve mice; format: in vivo, mouse; settings: injection of synthetic hepcidin in WT naïve mice, from the vehicle control, maximal effect at 3-4 hours
Procedure: Female C57BL/6 mice (Janvier, France) at age of 9 weeks were fed a standard diet (Harlan Provimi Kliba 3436) and treated per os (p.o.) with compounds or the corresponding amount of vehicle at a volume of 10 ml/kg body weight. Fpn inhibitors were formulated in 0.5% methylcellulose/water or 20% cremophor EL/water and dosed p.o. in mice at 10, 30 or 100 mg/kg body weight. Three hours later, mice were pre-terminally anesthetized in isoflurane chambers and blood was collected by retro-orbital bleeding. Mice were sacrificed by cervical dislocation and spleens, livers and duodena were harvested and used for biomarker analysis. All experiments have been conducted in compliance with the license approved by the responsible veterinarian authorities. Serum was isolated by centrifugation of blood into gel-containing microtainers and serum iron was determined by the MULTIGENT Iron assay (Abbott Diagnostics, 6K95). Eight mice per group were used and one-way ANOVA with Bonferroni's multiple comparison test was performed to analyze the statistical differences between the experimental groups.
Relative serum iron reduction at 3 h after dosing was calculated by subtracting the average of serum iron values of animals dosed with the Fpn inhibitor from that of vehicle-treated animals. The difference in average serum iron values between vehicle and compound treated groups was then divided by the average of serum iron of the vehicle control group and listed as percentage.

anemic Wistar rats = test: Prevention of iron absorption in anemic rats; format: in vivo, rat; settings: 1 h before 0.5 mg/kg ferrous sulfate
Procedure: To assess the in vivo efficacy of ferroportin (Fpn) inhibitors to block iron absorption, a series of Fpn inhibitors were tested in an anemic rat model for iron absorption. Wistar rats (3-4 weeks old, n=5, Janvier Labs) were fed a low iron diet (Provimi-Kliba, Cat. 2039) until their hemoglobin (Hb) values reach 7-8 g/dl one day before dosing of the Fpn inhibitor compounds. One hour before oral application of 0.5 mg/kg of ferrous sulfate, test compounds formulated in methyl cellulose or Cremophor were dosed orally. Blood samples were taken by tail vein puncture one hour before administration of iron (−1 h), immediately after dosing of the Fpn inhibitors (0 h) and one hour (1 h), three hours (3 h) and occasionally up to 6 hours (6 h) after dosing of the test compounds. Serum iron levels were measured (Abbott Diagnostics, Cat. 6K95) and inhibition of the rise of serum iron three hours after dosing of the test compound was calculated as a measure for efficacy of the Fpn inhibitors in blocking iron absorption (Table 7).

Structure (SMILES) | Fpn Degradation (120 min.) (ferroportin (Fpn) [1]) | Fpn Ubiquitination (10 min.) (ferroportin (Fpn) [1]) | IC50 (ferroportin (Fpn) [2]) | IC50 (human Fpn) | further results
O=C(NCc1ncccc1F)c1coc(CCNCc2nc3ccccc3[nH]2)n1 [Example 126] | + | +/− |  |  | 
O=C(NCc1ccccn1)c1csc2c1CCN(CCc1nc3ccccc3[nH]1)C2 [Example 49] |  |  | 30.6 µM | 24 µM | 
CC[C@H](C)[C@@H]1NC(=O)[C@@H](NC(=O)[C@@H](NC(=O)[C@@H]2CCCN2C(=O)[C@H](Cc2ccccc2)NC(=O)[C@H](Cc2c[nH]cn2)NC(=O)[C@@H](NC(=O)[C@@H](N)CC(=O)O)[C@@H](C)O)[C@@H](C)CC)CSSC[C@@H](C(=O)N[C@@H](CCCCN)C(=O)N[C@H](C(=O)O)[C@@H](C)O)NC(=O)[C@@H]2CSSC[C@@H]3NC(=O)[C@@H]4CSSC[C@H](NC(=O)[C@H](Cc5ccccc5)NC1=O)C(=O)N[C@@H](CSSC[C@H](NC(=O)[C@H](CCCCN)NC(=O)[C@H](CO)NC(=O)[C@H](CCCNC(=N)N)NC(=O)[C@H](Cc1c[nH]cn1)NC3=O)C(=O)NCC(=O)N[C@@H](CCSC)C(=O)N2)C(=O)NCC(=O)N4 [hepcidin, reference compound] | + | + |  |  | reduction of serum iron levels (naïve WT C57BL/6 mice): 40-50%
Cc1cccnc1CNC(=O)c1csc(CCNCc2nc3ccccc3[nH]2)n1 [Example 55] |  |  | 0.015 µM |  | Serum Iron Inhibition (%) at 3 h (anemic Wistar rats; Dose 3 mg/kg oral): 54*** %; Serum Iron Inhibition (%) at 3 h (anemic Wistar rats; Dose 10 mg/kg oral): 72*** %
O=C(NCc1ccccc1F)c1coc(C2CN(CCCc3nc4ccccc4[nH]3)C2)n1 [Example 233] |  |  | 16 µM | 6.78 µM | 
